According to publication PMC9229919, “4-Aminoquinoline-Based Adamantanes as Potential Anticholinesterase Agents in Symptomatic Treatment of Alzheimer’s Disease” (Pharmaceutics, 2022):
Where two headings read alike, the source gives them in different places.

Assays:
[1] = Reverse-phase thin-layer chromatographic lipophilicity (RF, RM0); assay type: physicochemical; conditions: for RM0: intercept of RM = RM0 + bC; for b: slope of RM = RM0 + bC; for RF, Methanol/Water/Hydrochloric acid (conc.), mobile phase I / RF, Dioxane/Water/Hydrochloric acid (conc.), mobile phase II / RF, Methanol/Water/Hydrochloric acid (conc.), mobile phase II / RF, Acetone/Water/Hydrochloric acid (conc.), mobile phase III / RF, Dioxane/Water/Hydrochloric acid (conc.), mobile phase III / RF, Methanol/Water/Hydrochloric acid (conc.), mobile phase III / RF, Dioxane/Water/Hydrochloric acid (conc.), mobile phase IV / RF, Acetone/Water/Hydrochloric acid (conc.), mobile phase IV / RF, Methanol/Water/Hydrochloric acid (conc.), mobile phase IV / RF, Acetone/Water/Hydrochloric acid (conc.), mobile phase IX / RF, Methanol/Water/Hydrochloric acid (conc.), mobile phase IX / RF, Dioxane/Water/Hydrochloric acid (conc.), mobile phase V / RF, Acetone/Water/Hydrochloric acid (conc.), mobile phase V / RF, Methanol/Water/Hydrochloric acid (conc.), mobile phase V / RF, Dioxane/Water/Hydrochloric acid (conc.), mobile phase VI / RF, Acetone/Water/Hydrochloric acid (conc.), mobile phase VI / RF, Methanol/Water/Hydrochloric acid (conc.), mobile phase VI / RF, Acetone/Water/Hydrochloric acid (conc.), mobile phase VII / RF, Methanol/Water/Hydrochloric acid (conc.), mobile phase VII / RF, Acetone/Water/Hydrochloric acid (conc.), mobile phase VIII / RF, Methanol/Water/Hydrochloric acid (conc.), mobile phase VIII: RP-18 silica; for RF, Methanol/Water/Hydrochloric acid (conc.), mobile phase I: I = 90%MeOH/5%H2O/5%HCl; for RF, Dioxane/Water/Hydrochloric acid (conc.), mobile phase II: II = 80%Dioxane/15%H2O/5%HCl; for RF, Methanol/Water/Hydrochloric acid (conc.), mobile phase II: II = 85%MeOH/10%H2O/5%HCl; for RF, Acetone/Water/Hydrochloric acid (conc.), mobile phase III: III = 70%AC/25%H2O/5%HCl; for RF, Dioxane/Water/Hydrochloric acid (conc.), mobile phase III: III = 70%Dioxane/25%H2O/5%HCl; for RF, Methanol/Water/Hydrochloric acid (conc.), mobile phase III: III = 80%MeOH/15%H2O/5%HCl; for RF, Dioxane/Water/Hydrochloric acid (conc.), mobile phase IV: IV = 60%Dioxane/35%H2O/5%HCl; for RF, Acetone/Water/Hydrochloric acid (conc.), mobile phase IV: IV = 65%AC/30%H2O/5%HCl; for RF, Methanol/Water/Hydrochloric acid (conc.), mobile phase IV: IV = 75%MeOH/20%H2O/5%HCl; for RF, Acetone/Water/Hydrochloric acid (conc.), mobile phase IX: IX = 40%AC/55%H2O/5%HCl; for RF, Methanol/Water/Hydrochloric acid (conc.), mobile phase IX: IX = 50%MeOH/45%H2O/5%HCl; for RF, Dioxane/Water/Hydrochloric acid (conc.), mobile phase V: V = 50%Dioxane/45%H2O/5%HCl; for RF, Acetone/Water/Hydrochloric acid (conc.), mobile phase V: V = 60%AC/35%H2O/5%HCl; for RF, Methanol/Water/Hydrochloric acid (conc.), mobile phase V: V = 70%MeOH/25%H2O/5%HCl; for RF, Dioxane/Water/Hydrochloric acid (conc.), mobile phase VI: VI = 40%Dioxane/55%H2O/5%HCl; for RF, Acetone/Water/Hydrochloric acid (conc.), mobile phase VI: VI = 55%AC/40%H2O/5%HCl; for RF, Methanol/Water/Hydrochloric acid (conc.), mobile phase VI: VI = 65%MeOH/30%H2O/5%HCl; for RF, Acetone/Water/Hydrochloric acid (conc.), mobile phase VII: VII = 50%AC/45%H2O/5%HCl; for RF, Methanol/Water/Hydrochloric acid (conc.), mobile phase VII: VII = 60%MeOH/35%H2O/5%HCl; for RF, Acetone/Water/Hydrochloric acid (conc.), mobile phase VIII: VIII = 45%AC/50%H2O/5%HCl; for RF, Methanol/Water/Hydrochloric acid (conc.), mobile phase VIII: VIII = 55%MeOH/40%H2O/5%HCl
In short: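 Reverse-phase TLC using mobile phases of methanol, acetone or dioxane with water and hydrochloric acid. Methanol varied in 10% steps; development distance 4.5 cm, ambient temperature (22±2 °C). RF measured and RM0 derived from retention.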

purified human BChE [2] = biological target: T1, purified human BChE (Homo sapiens, UniProt P06276); experiment: biochemical; assay type: biochemical
T1 construct: possibly also a gift of Dr Florian Nachon (the sentence is ambiguous)
In short: (§1)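 Modified Ellman assay with acetylthiocholine and DTNB in 0.1 M sodium phosphate pH 7.4 (enzymes diluted with 0.1% BSA), ≤0.2% DMSO, 25 °C. At least three inhibitor concentrations per substrate level; Ki,app from Hunter–Downs equation, Ki from y-intercept and inhibition type from Ki,app vs [S].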

recombinant human AChE = biological target: T2, recombinant human AChE (Homo sapiens, UniProt P22303); experiment: biochemical; assay type: biochemical; conditions: for IS: IS = Ki(BChE)/Ki(AChE), IS > 1 selective to AChE
T2 construct: gift of Dr Florian Nachon (Armed Forces Biomedical Research Institute, Brétigny-sur-Orge, France)
In short: as §1

purified human BChE [3] = biological target: T1, purified human BChE; set-up: method as in PMID 31600664; conditions: previously tested derivative 2 (CQAd); ref [38]; cited from earlier work
[4] = Ferric reducing antioxidant power (FRAP) assay; conditions: for FRAP: mean ± standard error of three experiments;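 on FRAP: expressed as µM Fe2+ equivalents from an FeSO4·7H2O standard curve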
In short: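 Compounds at 10 and 100 µM were mixed with FRAP reagent (300 mM acetate buffer pH 3.6, TPTZ in HCl, FeCl3, 10:1:1) and incubated 60 min at 37 °C. Fe^2+-TPTZ formation read at 593 nm against a blank. Values derived from an Fe2SO4·7H2O standard curve, three independent experiments.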

physchem = conditions: octadecyl-modified silica RP-18W F254s TLC plates, pH 0.5
Description: The mobile phase contained an organic modifier (methanol, acetone or dioxane), water, and hydrochloric acid. The content of hydrochloric acid was kept constant at 5% v/v, while the portions of organic modifier and water varied. […] Mobile phase MeOH/H2O/HCl, 70:25:5 (vol%) was used to determine the partition coefficients, logDexp, of the tested compounds at pH 0.5 (Supplementary Materials File S3 Table S7).
Chromatographic determination of lipophilicity
Lipophilicity of synthesized compounds was evaluated under reversed-phase thin-layer
chromatographic condition using the vertical developing chamber (CAMAG, Muttenz, Switzerland)
The mobile phase contained organic modifier (methanol, acetone or dioxane), water and hydrochloric acid. The content of hydrochloric acid was kept constant at 5 %v/v
while the portion of the organic modifier and water were changed. Methanol was varied in the range
with an increment of 10%. The chamber was saturated with a mobile phase being used 15 minutes
before chromatogram development. The solvent developing distance was 4.5 cm. Detection of
All experiments were performed at ambient temperature (22±2 °C). Retention parameters were calculated as previously described [7].
The logD values of the investigated substances were determined by the interpolation procedure. […]
LogD values of the investigated substances were determined from the equation of the calibration […]

[5] = Acetone/Water/Hydrochloric acid (conc.)
[6] = Dioxane/Water/Hydrochloric acid (conc.)
[7] = Methanol/Water/Hydrochloric acid (conc.)
[8] = logarithm of Ki in µM, BChE, dependent variable of the QSAR model, read-out: Y Measured 2 log(ki)Bche, log (Ki/µM BChE) (converted)

T1 sequence (P06276 29-602): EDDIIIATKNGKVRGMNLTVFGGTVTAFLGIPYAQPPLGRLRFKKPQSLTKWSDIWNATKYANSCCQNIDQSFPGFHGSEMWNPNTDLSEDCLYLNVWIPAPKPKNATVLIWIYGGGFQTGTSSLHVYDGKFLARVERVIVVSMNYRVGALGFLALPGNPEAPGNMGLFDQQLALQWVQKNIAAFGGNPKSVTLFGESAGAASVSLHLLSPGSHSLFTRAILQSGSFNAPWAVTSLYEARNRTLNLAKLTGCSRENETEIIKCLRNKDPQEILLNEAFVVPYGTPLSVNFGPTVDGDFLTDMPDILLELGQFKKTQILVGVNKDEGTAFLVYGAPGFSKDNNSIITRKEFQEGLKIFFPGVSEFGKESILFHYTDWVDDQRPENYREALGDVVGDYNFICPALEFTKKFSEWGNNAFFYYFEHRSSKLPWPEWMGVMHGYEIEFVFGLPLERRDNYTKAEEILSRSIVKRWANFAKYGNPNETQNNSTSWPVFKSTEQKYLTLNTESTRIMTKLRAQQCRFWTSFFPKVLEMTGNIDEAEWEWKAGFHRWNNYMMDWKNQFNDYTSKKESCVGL
T2 sequence (P22303 32-614): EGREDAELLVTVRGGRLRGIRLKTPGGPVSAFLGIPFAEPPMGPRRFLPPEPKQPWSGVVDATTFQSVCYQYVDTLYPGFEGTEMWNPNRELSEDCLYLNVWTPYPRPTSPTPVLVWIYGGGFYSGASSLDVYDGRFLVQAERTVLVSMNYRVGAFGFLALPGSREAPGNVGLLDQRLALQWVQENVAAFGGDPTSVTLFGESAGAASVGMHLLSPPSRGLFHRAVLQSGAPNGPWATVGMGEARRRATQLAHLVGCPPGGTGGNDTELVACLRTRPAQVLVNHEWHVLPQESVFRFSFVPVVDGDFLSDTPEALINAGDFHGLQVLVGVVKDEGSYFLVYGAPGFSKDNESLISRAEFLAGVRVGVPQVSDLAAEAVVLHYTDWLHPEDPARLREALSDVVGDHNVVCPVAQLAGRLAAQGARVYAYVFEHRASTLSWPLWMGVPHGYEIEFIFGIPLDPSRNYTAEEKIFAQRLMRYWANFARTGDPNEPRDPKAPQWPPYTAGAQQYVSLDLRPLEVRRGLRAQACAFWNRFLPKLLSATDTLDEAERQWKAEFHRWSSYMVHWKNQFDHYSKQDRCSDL

SMILES: Clc1ccc2c(NCCCNCC34CC5CC(CC(C5)C3)C4)ccnc2c1 [Compound 2]
- RM0 [1, 5]: 1.795
- b [1, 5]: 2.949
- RM0 [1, 6]: 0.8129
- b [1, 6]: 1.796
- RM0 [1, 7]: 2.34
- b [1, 7]: 3.123
- RF, Methanol/Water/Hydrochloric acid (conc.), mobile phase I [1]: 0.73
- RF, Dioxane/Water/Hydrochloric acid (conc.), mobile phase II [1]: 0.78
- RF, Methanol/Water/Hydrochloric acid (conc.), mobile phase II [1]: 0.67
- RF, Acetone/Water/Hydrochloric acid (conc.), mobile phase III [1]: 0.61
- RF, Dioxane/Water/Hydrochloric acid (conc.), mobile phase III [1]: 0.73
- RF, Methanol/Water/Hydrochloric acid (conc.), mobile phase III [1]: 0.52
- RF, Dioxane/Water/Hydrochloric acid (conc.), mobile phase IV [1]: 0.73
- RF, Acetone/Water/Hydrochloric acid (conc.), mobile phase IV [1]: 0.58
- RF, Methanol/Water/Hydrochloric acid (conc.), mobile phase IV [1]: 0.53
- RF, Acetone/Water/Hydrochloric acid (conc.), mobile phase IX [1]: 0.15
- RF, Methanol/Water/Hydrochloric acid (conc.), mobile phase IX [1]: 0.11
- RF, Dioxane/Water/Hydrochloric acid (conc.), mobile phase V [1]: 0.55
- RF, Acetone/Water/Hydrochloric acid (conc.), mobile phase V [1]: 0.5
- RF, Methanol/Water/Hydrochloric acid (conc.), mobile phase V [1]: 0.47
- RF, Dioxane/Water/Hydrochloric acid (conc.), mobile phase VI [1]: 0.4
- RF, Acetone/Water/Hydrochloric acid (conc.), mobile phase VI [1]: 0.41
- RF, Methanol/Water/Hydrochloric acid (conc.), mobile phase VI [1]: 0.43
- RF, Acetone/Water/Hydrochloric acid (conc.), mobile phase VII [1]: 0.35
- RF, Methanol/Water/Hydrochloric acid (conc.), mobile phase VII [1]: 0.25
- RF, Acetone/Water/Hydrochloric acid (conc.), mobile phase VIII [1]: 0.3
- RF, Methanol/Water/Hydrochloric acid (conc.), mobile phase VIII [1]: 0.19
- less potent inhibitors of BChE than compounds 3 or 4 (purified human BChE [2]): about 3.2 times
- Ki (purified human BChE [2]; [8]): 3.2 µM
- IS (recombinant human AChE): 4.2
- Y Measured 1 log(ki)Ache (recombinant human AChE; log (Ki/µM AChE)): -1.14E-01
- Ki (purified human BChE [3]): 3.2 ± 0.4 µM
- FRAP ([4]; 10 µM compound): 19 ± 2 µM
- FRAP ([4]; 100 µM compound): 64 ± 5 µM

SMILES: Clc1ccc2c(Nc3cccc4c(NCCC56CC7CC(CC(C7)C5)C6)cccc34)ccnc2c1 [Compound 19]
- RM0 [1, 5]: 1.657
- b [1, 5]: 2.289
- RM0 [1, 6]: 1.551
- b [1, 6]: 2.623
- RM0 [1, 7]: 3.685
- b [1, 7]: 4.54
- RF, Methanol/Water/Hydrochloric acid (conc.), mobile phase I [1]: 0.67
- RF, Dioxane/Water/Hydrochloric acid (conc.), mobile phase II [1]: 0.7
- RF, Methanol/Water/Hydrochloric acid (conc.), mobile phase II [1]: 0.61
- RF, Acetone/Water/Hydrochloric acid (conc.), mobile phase III [1]: 0.49
- RF, Dioxane/Water/Hydrochloric acid (conc.), mobile phase III [1]: 0.66
- RF, Methanol/Water/Hydrochloric acid (conc.), mobile phase III [1]: 0.44
- RF, Dioxane/Water/Hydrochloric acid (conc.), mobile phase IV [1]: 0.63
- RF, Acetone/Water/Hydrochloric acid (conc.), mobile phase IV [1]: 0.41
- RF, Methanol/Water/Hydrochloric acid (conc.), mobile phase IV [1]: 0.35
- RF, Acetone/Water/Hydrochloric acid (conc.), mobile phase IX [1]: 0.15
- RF, Methanol/Water/Hydrochloric acid (conc.), mobile phase IX [1]: 0
- RF, Dioxane/Water/Hydrochloric acid (conc.), mobile phase V [1]: 0.53
- RF, Acetone/Water/Hydrochloric acid (conc.), mobile phase V [1]: 0.3
- RF, Methanol/Water/Hydrochloric acid (conc.), mobile phase V [1]: 0.3
- RF, Dioxane/Water/Hydrochloric acid (conc.), mobile phase VI [1]: 0.13
- RF, Acetone/Water/Hydrochloric acid (conc.), mobile phase VI [1]: 0.28
- RF, Methanol/Water/Hydrochloric acid (conc.), mobile phase VI [1]: 0.21
- RF, Acetone/Water/Hydrochloric acid (conc.), mobile phase VII [1]: 0.25
- RF, Methanol/Water/Hydrochloric acid (conc.), mobile phase VII [1]: 0.1
- RF, Acetone/Water/Hydrochloric acid (conc.), mobile phase VIII [1]: 0.2
- RF, Methanol/Water/Hydrochloric acid (conc.), mobile phase VIII [1]: 0.04
- decrease in BChE inhibition vs compound 5 (purified human BChE [2]): up to 275 times
- Ki (purified human BChE [2]; [8]): 21.9 µM
- Ki (purified human BChE [2]; ± standard error, 25 °C, ATCh substrate, read-out: Ki BChE): 22 ± 2 µM
- IS (recombinant human AChE): 5.8
- Ki (recombinant human AChE; log (Ki/µM AChE), read-out: Y Measured 1 log(ki)Ache (converted)): 3.8 µM
- Ki (recombinant human AChE; ± standard error, 25 °C, ATCh substrate, read-out: Ki AChE): 3.8 ± 0.3 µM
- FRAP ([4]; 10 µM compound): 336 ± 12 µM
- FRAP ([4]; 100 µM compound): 2450 ± 210 µM
- reducing power (in words) ([4]; 10 and 100 µM): very good reducing power comparable to that of BHT and Trolox
- chromatographic logD (physchem): -4.12
